Publication PMC12254266, “Multicolored sequential resonance energy transfer for detection of simultaneous ligand binding at G protein-coupled receptors” (Nature Communications, 2025)
Where “and” joins values, the source holds several entries; their conditions need not be identical. Equal values may be shown once.

Tests used:
FFA1-Nluc [1] = target: T1, FFA1-Nluc (Homo sapiens, UniProt O14842); experiment: Ca2+ mobilisation antagonism of FFA1 agonists (TUG-905, T360) in Flp-In T-REx 293 cells expressing FFA1-Nluc; assay type: cell-based; set-up: expressed in transfected cells
Experimental: Nluc-FFA1, FFA1-Nluc or untagged FFA1 Flp-In T-REx 293 cells were plated at 50,000 cells per well in poly-D-lysine coated black clear bottom 96-well plates. Cells were then cultured for 24 h until reaching confluency before culture medium was replaced with medium containing 100 ng/mL of doxycycline to induce receptor expression. Cells were cultured for a further 24 h before the assay. On the day of the assay culture medium was removed and replaced with medium containing 3 μM Fura2-AM Ca^2+ dye. […] Fura2 fluorescent emission at 520 nm following excitation with each of 340 and 380 nm was measured in regular intervals both before and after adding test compounds for a total of 90 s per well. Calcium responses were determined by taking the peak 340/380 ratio after first subtracting the ratios obtained prior to addition of test compound. […]
Ca2+ mobilization responses were measured in
Flp-In T-REx 293 cells expressing FFA1-Nluc. Ca2+ responses to increasing concentrations
pre-treated with 10 μM PPTQ. The mode of antagonism for PPTQ was assessed by
N=3 (A-D, F, H) or N=4 (E, G) independent experiments. S ource data are provided as a […]

FFA1-Nluc [2] = target: T1, FFA1-Nluc; experiment: DISCo-BRET (endpoint, spectra scan, kinetics) with TUG-2591 and TUG-2597 at C terminal Nluc tagged FFA1; assay type: binding; set-up: expressed in transfected cells; details: for Specific BRET (690/540), % of control: Figure 4Aiii; for Specific BRET (690/540), % of control / Specific BRET (540/450), % of control: single replicate values (technical duplicate); for Specific BRET (540/450), % of control: Figure 4Biii
Summary of the method: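 Flp-In T-REx 293 cells expressing Nluc-tagged FFA1 were induced with 100 ng/mL doxycycline for 24 h, then given Nano-Glo (1:800 final). Endpoint and spectral reads were taken 5 min after ligand at 37 °C; kinetics were read at 25 °C with sequential ligand additions. BRET ratios were taken from Nluc, NBD and SulfoCy5 emissions.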

FFA1-Nluc [3] = target: T1, FFA1-Nluc; experiment: NanoBRET binding (saturation, kinetics) at C terminal Nluc tagged FFA1; set-up: expressed in transfected cells; details: Sup Fig 7B
Experimental: (§1) Nluc-FFA1 or FFA1-Nluc Flp-In T-REx 293 cells were plated at 50,000 cells per well in poly-D-lysine coated white 96-well plates. Cells were cultured for 24 h in the plate before medium was replaced with medium containing 100 ng/mL of doxycycline to induce receptor expression. After culturing for a further 24 h, medium was removed, cells were washed with HBSS and incubated in HBSS for 30 min. To start the assay, NanoGlo substrate (Promega, N1110) was added to the cells at a 1:800 final dilution and incubated for 10 min at 37 °C. For endpoint assays, including both saturation and competition binding, test ligands were then added, including both fluorescent and unlabelled competing ligands as indicated, and plates incubated for a further 5 min at 37 °C. NanoBRET was then quantified in a CLARIOstar microplate reader (BMG Labtech) by measuring luminescent emission with the monochrometer set for the Nluc donor at 450–60 nm, and acceptor luminescent emission 540–60 nm (NBD), 600–80 nm (Cy3.5) or 690–100 nm (SulfoCy5), depending on which fluorophore was being tested. The acceptor/donor BRET ratio was then taken as a measure of fluorophore binding. For kinetic on then off NanoBRET experiments plates were washed the same way and substrate was added to the same concentration. However, 10 min after substrate was added plates were inserted into the CLARIOstar microplate reader set to 25 °C to take repeated measurements of luminescent emission for both the donor and the acceptor fluorophore being used. After 5 min of background measurements, the indicated concentration of fluorescent ligand was added using the plate reader injector and luminescent emission was monitored for ~10 min before the reader was paused to manually add a high concentration of appropriate competing ligand to initiate dissociation. The plate was returned to the reader and luminescence measurements were continued for a further 30 min to monitor dissociation of the fluorescent ligand. For kinetic experiments using multiple concentrations of fluorescent ligand, cells were placed in the plate reader immediately after the addition of Nano-Glo substrate and luminescent measurements were taken. After 5 min, the reader was paused to add the indicated concentrations of fluorescent ligand, before measurements were continued. To set non-specific binding for kinetic experiments, the indicated competing ligand was added 5 min before the addition of the fluorescent ligand.

Nluc-FFA1 = target: T2, Nluc-FFA1 (Homo sapiens, UniProt O14842); experiment: NanoBRET binding (saturation, competition, kinetics) at N terminal Nluc tagged FFA1; details: footnotes of Supplementary Table 3; read-out: Kd values obtained in NanoBRET saturation experiments (used for pKi) (converted)
T2 construct: expressed in transfected cells
Experimental: as §1

T1 sequence (O14842 whole entry): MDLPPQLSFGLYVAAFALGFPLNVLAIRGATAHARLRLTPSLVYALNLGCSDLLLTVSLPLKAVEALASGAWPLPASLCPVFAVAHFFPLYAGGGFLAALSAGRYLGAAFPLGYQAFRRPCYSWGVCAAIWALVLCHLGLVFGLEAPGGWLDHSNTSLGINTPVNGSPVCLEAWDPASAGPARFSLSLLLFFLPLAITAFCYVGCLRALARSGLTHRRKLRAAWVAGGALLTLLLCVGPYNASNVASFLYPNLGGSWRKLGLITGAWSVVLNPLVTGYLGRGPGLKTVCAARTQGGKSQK
T2 sequence (O14842 whole entry): as above

## CCCN1C(=O)c2ccccc2[C@@H](C(=O)O)[C@@H]1c1ccc(OCc2cccc(-c3ccc(OCCCS(C)(=O)=O)cc3C)c2)cc1 (racemic) [TUG-2745]
FFA1-Nluc [1]; in words
  antagonism of site one agonist (TUG-905) Ca2+ response: inhibits signalling from site one
FFA1-Nluc [1]; response to log[T360] -5 in presence of TUG-2745, Sup Fig 6H
  Ca2% Response (%): 90.24% and 94.14% and 97.83% and 85.85% and 108.28% and 87.68%
FFA1-Nluc [1]; response to log[T360] -6 in presence of TUG-2745, Sup Fig 6H
  Ca2% Response (%): 106.53% and 104.17% and 101.28% and 97.48% and 114.91% and 110.38%
FFA1-Nluc [1]; response to log[T360] -8 in presence of TUG-2745, Sup Fig 6H
  Ca2% Response (%): 5.16% and 2.24% and -0.89% and 3.26% and 3.57% and -0.49%
FFA1-Nluc [1]; response to log[T360] -9 in presence of TUG-2745, Sup Fig 6H
  Ca2% Response (%): -1.82% and 2.64% and 1.16% and 1.84% and 0.35% and 1.32%
FFA1-Nluc [1]; response to log[T360] -10 in presence of TUG-2745, Sup Fig 6H
  Ca2% Response (%): -0.06% and 1.71% and 3.56% and 4.07% and 1.54% and 0.19%
FFA1-Nluc [1]; response to log[T360] -11 in presence of TUG-2745, Sup Fig 6H
  Ca2% Response (%): 2.74% and 2.14% and 3.49% and 1.57% and 6.13% and -0.07%
FFA1-Nluc [1]; response to log[TUG-905] -5 in presence of TUG-2745, Sup Fig 6G
  Ca2% Response (%): 59.62% and 66.91% and 76.48% and 82.73% and 94.09% and 86.41%
FFA1-Nluc [2]; 100 nM TUG-2591 and […] TUG-2597, one site model, NC = No competition
  pIC50 DISCo-BRET SulfoCy5/NBD: 6.0±0.06
FFA1-Nluc [2]; log[Ligand] -5
  Specific BRET (690/540), % of control: 0.92 % of control and 2.39 % of control and -9.90 % of control and -8.10 % of control and -2.12 % of control and -2.60 % of control and -5.52 % of control and -2.17 % of control
  Specific BRET (540/450), % of control: 155.62 % of control and 107.52 % of control and 117.08 % of control and 99.92 % of control and 108.86 % of control and 92.88 % of control and 108.34 % of control
FFA1-Nluc [2]; log[Ligand] -5.5
  Specific BRET (690/540), % of control: 19.71 % of control and 24.68 % of control and 5.40 % of control and 1.46 % of control and 18.78 % of control and 3.37 % of control and 12.72 % of control and 3.96 % of control
  Specific BRET (540/450), % of control: 128.42 % of control and 65.71 % of control and 109.72 % of control and 87.17 % of control and 104.75 % of control and 74.68 % of control and 117.49 % of control
FFA1-Nluc [2]; log[Ligand] -6
  Specific BRET (690/540), % of control: 43.09 % of control and 64.83 % of control and 36.45 % of control and 38.47 % of control and 45.84 % of control and 53.64 % of control and 35.79 % of control and 29.99 % of control
  Specific BRET (540/450), % of control: 103.22 % of control and 89.76 % of control and 90.60 % of control and 69.85 % of control and 83.23 % of control and 146.81 % of control
FFA1-Nluc [2]; log[Ligand] -6.5
  Specific BRET (690/540), % of control: 78.64 % of control and 74.49 % of control and 82.00 % of control and 53.43 % of control and 70.00 % of control and 66.92 % of control and 69.40 % of control and 69.25 % of control
  Specific BRET (540/450), % of control: 86.61 % of control and 51.40 % of control and 85.70 % of control and 71.65 % of control and 68.99 % of control
FFA1-Nluc [2]; log[Ligand] -7
  Specific BRET (690/540), % of control: 89.69 % of control and 92.82 % of control and 101.91 % of control and 88.41 % of control and 100.24 % of control and 95.91 % of control and 89.88 % of control and 95.21 % of control
  Specific BRET (540/450), % of control: 100.64 % of control and 40.23 % of control and 87.50 % of control and 76.88 % of control and 80.22 % of control and 64.08 % of control and 139.58 % of control
FFA1-Nluc [2]; log[Ligand] -8
  Specific BRET (690/540), % of control: 95.21 % of control and 98.62 % of control and 92.91 % of control and 107.54 % of control and 94.56 % of control and 87.72 % of control and 98.50 % of control and 104.07 % of control
  Specific BRET (540/450), % of control: 82.89 % of control and 76.59 % of control and 92.89 % of control and 70.83 % of control and 83.23 % of control and 65.66 % of control and 122.27 % of control
FFA1-Nluc [2]; log[Ligand] -9
  Specific BRET (690/540), % of control: 101.38 % of control and 98.62 % of control and 102.14 % of control and 95.05 % of control and 103.71 % of control and 93.98 % of control
  Specific BRET (540/450), % of control: 57.41 % of control and 46.53 % of control and 87.83 % of control and 70.67 % of control and 68.35 % of control and 75.16 % of control and 107.46 % of control
FFA1-Nluc [2]; percentage of binding obtained in the absence of competing ligand, 100 nM TUG-2591 and […] TUG-2597
  'bottom' of the IC50 curve, DISCo-BRET SulfoCy5/NBD: -15%
FFA1-Nluc [2]; using Kd TUG-2591 57 nM
  pKi DISCo-BRET SulfoCy5/NBD: 6.4±0.06

## CCCN1C(=O)c2ccccc2[C@@H](C(=O)O)[C@@H]1c1ccc(OCc2cccc(-c3ccc(OCCOCCNc4ccc([N+](=O)[O-])c5nonc45)cc3C)c2)cc1 [TUG-2884]
FFA1-Nluc [3]; [TUG-2884] 1 μM
  Specific BRET (%): 60.2367% and 75.4193% and 48.9635% and 51.5087% and 65.0111% and 65.7411%
FFA1-Nluc [3]; [TUG-2884] 2 μM
  Specific BRET (%): 98.0293% and 80.378% and 57.5363% and 68.9417% and 80.7303% and 88.1476%
FFA1-Nluc [3]; [TUG-2884] 4 μM, technical duplicates
  Specific BRET (%): 96.6176% and 103.382%
Nluc-FFA1
  Kd: 940 nM
